pIC50: −log10 of the molar value.
biological target: T1, PTP1B (Homo sapiens, UniProt P18031); assay: recombinant PTP1B pNPP hydrolysis assay, absorbance […] nm; assay type: biochemical
T1 construct: gene PTPN1; human recombinant (Abcam ab51277)
T1 sequence (P18031 1-435): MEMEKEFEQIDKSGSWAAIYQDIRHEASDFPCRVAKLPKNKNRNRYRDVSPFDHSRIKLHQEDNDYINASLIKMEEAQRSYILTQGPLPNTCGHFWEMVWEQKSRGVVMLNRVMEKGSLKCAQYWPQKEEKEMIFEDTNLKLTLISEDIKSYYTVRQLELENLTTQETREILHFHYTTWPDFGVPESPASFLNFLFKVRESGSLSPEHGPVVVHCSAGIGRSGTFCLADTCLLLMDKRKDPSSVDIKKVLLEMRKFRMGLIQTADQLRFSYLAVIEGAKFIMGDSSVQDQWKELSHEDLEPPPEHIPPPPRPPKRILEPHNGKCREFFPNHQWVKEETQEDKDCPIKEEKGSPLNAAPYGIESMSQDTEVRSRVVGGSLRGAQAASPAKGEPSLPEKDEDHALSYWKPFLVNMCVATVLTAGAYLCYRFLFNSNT

| pIC50 | SMILES |
| --- | --- |
| 4.76 | COc1cc(O)cc(C)c1C[C@@]1(C(N)=O)OC(C)=CC1=O |
| 4.34 | COc1cc(O)cc(C)c1CC1(C(N)=O)OC(C)=CC1=O (racemic) [(±)-1, Asperfuranone (1)] |
| 4.37 | COc1cc(O)cc(C)c1Cc1c(O)cc(C)oc1=O [compound 2, asperpyranone A] |
| 4.45 | COc1cc(O)cc(C)c1C[C@]1(C(N)=O)OC(C)=CC1=O [(−)-1, (−)-asperfuranone] |
